The test system of data set [1] is YPEN-1 cells (rat prostatic endothelial cell line). Kind of data set: In vitro ROS scavenging activity assay (DCFDA). The data set is classed as cell-based. As to conditions: cells pre-treated with 50 μM SIN-1 for 1 hour; DCFDA fluorescence; positive control trolox; FIGS. 1 and 2. How it is done:
YPEN-1 cells (rat prostatic endothelial cell line) was obtained from American type culture collection (ATCC, Manassas, Va., USA), and the cells were cultured by using a dulbecco's modified eagle medium (DMEM, Nissui, Tokyo, Japan) containing 2 mM L-glutamine, […], 2.5 mg/L amphotericin B, and 5% inactivated fetal bovine serum (FBS). Also, the cells were maintained at a temperature of 37° C. in a humid atmosphere-like condition containing 5% CO2 and 95% air. […] The cells were sub-cultured in 100 mm plastic flask (Corning Co., New York, USA) every two days to maintain the cell line.
2′,7′-dichlorodihydrofluorescein diacetate (DCFDA) assay method according to a conventionally known method (Chem Res Toxicol. 5: 227-231, 1992) was used. In detail, 12.5 mM DCFDA dissolved in 99.9% ethanol and 600 U/ml esterase dissolved in tertiary distilled water were stored as a stock solution at a temperature of −20° C., and a 2′,7′-dichlorodihydrofluorescein (DCFH) solution prepared by mixing 10 mM DCFDA and 6 U/ml esterase was cultured at a temperature of 22° C. for 20 minutes, and then, refrigerated in a dark place before use. […] Vascular endothelial cells that were pre-treated with 50 μM 3-morpholinosydnonimine hydrochloride (SIN-1) for 1 hour were used as a reactive oxygen generation source.

For data set [2], the system named is Mushroom-derived tyrosinase. Kind of data set: Tyrosinase inhibitory effect. In kind it is biochemical. As to conditions: 1 mM L-tyrosin, pH 6.5, 25° C., 30 minutes, OD492; positive control kojic acid; FIGS. 3 and 4. How it is done: Mushroom-derived tyrosinase was sued as an enzyme source in the present experiment. Tyrosinase activities were assayed according to a slightly-modified conventionally known method (Life Sci., 1999, 65, 241-246). In detail, 20 μl of a mushroom-derived tyrosinase (1000 units) aqueous solution was added to 96-well microplate (Nunc, Denmark) to prepare 200 μl of the total volume of assay mixture containing 1 mM L-tyrosin solution and 50 mM phosphate buffer solution (pH 6.5). The assay mixture was cultured at a temperature of 25° C. for 30 minutes.

The target of data set [3] is T1, PPAR gamma-LBD (Homo sapiens, UniProt P37231).
T1 sequence (P37231 238-503 limits assumed): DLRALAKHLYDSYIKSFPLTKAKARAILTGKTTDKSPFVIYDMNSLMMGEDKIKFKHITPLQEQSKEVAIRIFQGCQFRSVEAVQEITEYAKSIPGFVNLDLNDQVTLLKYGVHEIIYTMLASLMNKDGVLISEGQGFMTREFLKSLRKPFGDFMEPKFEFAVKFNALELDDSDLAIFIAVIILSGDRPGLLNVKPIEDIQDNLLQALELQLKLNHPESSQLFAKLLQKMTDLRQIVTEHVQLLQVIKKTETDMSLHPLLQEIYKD
The data set is described as follows: PPAR assay, PPARγ. In kind it is binding. Particulars: sample final concentration 100 μM; positive control rosiglitazone; FIGS. 7 and 8.

Data set [4] has as its target T2, PPAR alpha-LBD (Homo sapiens, UniProt Q07869).
T2 sequence (Q07869 239-466 limits assumed): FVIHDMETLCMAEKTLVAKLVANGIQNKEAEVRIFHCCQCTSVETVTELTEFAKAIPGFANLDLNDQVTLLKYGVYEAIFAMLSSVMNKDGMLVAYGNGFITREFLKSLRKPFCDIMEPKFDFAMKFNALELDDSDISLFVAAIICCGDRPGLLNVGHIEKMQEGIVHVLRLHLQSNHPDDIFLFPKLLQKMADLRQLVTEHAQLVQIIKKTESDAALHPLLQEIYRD
The data set is described as follows: PPAR assay, PPARα. As to conditions: for PPARα activation (competitive activation rate), compared with fenofibrate: sample final concentration 100 μM, positive control fenofibrate, FIGS. 5 and 6; for simultaneous activation of PPARα and PPARγ: summary of the PPARα and PPARγ assays, sample 100 μM.

`Oc1ccc(-c2nc3cc(Cl)ccc3s2)cc1O` [Compound 83, 4-(5-chlorobenzo[d]thiazol-2-yl)benzene-1,2-diol] came in with a melting point of 127.4 to 129.1 °C. In data set [1], the “scavenging effects on ROS generated by vascular endothelial cells, compared with trolox” value is “as high scavenging effects on ROS generated by vascular endothelial cells as trolox”. Further, in data set [2], the “tyrosinase inhibitory activities, compared with kojic acid” value was “better tyrosinase inhibitory activities than a kojic acid”.

With `COc1cc(C2Nc3cc(Cl)ccc3S2)cc(OC)c1O` (stereo not shown) [Compound 94, 4-(5-chloro-2,3-dihydrobenzo[d]thiazol-2-yl)-2,6-dimethoxyphenol], the melting point lay within 155.8 to 158.6 °C. In addition, in data set [3], the “PPARγ activation (competitive activation rate), compared with rosiglitazone” value is reported as “very excellent PPARγ activation agent compared to rosiglitazone”. For the same compound, the “scavenging effects on ROS generated by vascular endothelial cells, compared with trolox” value in data set [1] is listed as “as high scavenging effects on ROS generated by vascular endothelial cells as trolox”. Further, in data set [4], the “PPARα activation (competitive activation rate), compared with fenofibrate” value is “very excellent PPARα activation agent compared to fenofibrate”; the “simultaneous activation of PPARα and PPARγ” value was “simultaneously activates PPARα and PPARγ”. For the same compound, in data set [2], the “tyrosinase inhibitory activities, compared with kojic acid” value is “better tyrosinase inhibitory activities than a kojic acid”.

With `CC(C)(Oc1ccc(-c2nc3cc(Cl)ccc3s2)cc1)C(=O)O` [Compound 99, 2-(4-(5-chlorobenzo[d]thiazol-2-yl)phenoxy)-2-methylpropanoic acid], the “PPARγ activation (competitive activation rate), compared with rosiglitazone” value in data set [3] is on record as “very excellent PPARγ activation agent compared to rosiglitazone”. Moreover, in data set [4], the “PPARα activation (competitive activation rate), compared with fenofibrate” value is reported as “very excellent PPARα activation agent compared to fenofibrate”; the “simultaneous activation of PPARα and PPARγ” value was “simultaneously activates PPARα and PPARγ”. In addition, the “tyrosinase inhibitory activities, compared with kojic acid” value in data set [2] is “better tyrosinase inhibitory activities than a kojic acid”.

The values are drawn from patent publication US8889881B2, “Compound having skin-whitening, anti-oxidizing and PPAR activities and medical use therefor” (Pusan National University Industry —University Cooperation …, priority 2011, dated 2014).
